Measured values as given in patent US20120100990A1, “4 -AMINOPICOLINATES AND THEIR USE AS HERBICIDES” (SYNGENTA CROP PROTECTION LLC, priority 2009, published 2012).

Assays:
Type in all cases: in vivo
[1] = tested on: Solanum nigrum (SOLNI); assay: Pre-emergence biological efficacy, glasshouse pot test; details: 312 h, 1,000 g/ha, evaluated after 13 days, 100=total damage, 0=no damage, read-out: Percentage damage caused to weed species, pre-emergence, SOLNI
Method in brief: (§1)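 Damage was rated 13 days after treatment on a 0–100 scale, where 100 is total plant kill. Pots sown one day earlier were sprayed with 1000 or 250 g/ha test compound in aqueous acetone/water (50:50) containing 0.5% Tween 20, and grown at 24/16 °C with 14 h light, 65% humidity and twice-daily watering.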

[2] = tested on: Amaranthus retroflexus (AMARE); assay: as above; details: 312 h, 1,000 g/ha, evaluated after 13 days, 100=total damage, 0=no damage, read-out: Percentage damage caused to weed species, pre-emergence, AMARE
Method in brief: as §1

[3] = tested on: Setaria faberi (SETFA); assay: as above; details: 312 h, 1,000 g/ha, evaluated after 13 days, 100=total damage, 0=no damage, read-out: Percentage damage caused to weed species, pre-emergence, SETFA
Method in brief: as §1

[4] = tested on: Alopecurus myosuroides (ALOMY); assay: as above; details: 312 h, 1,000 g/ha, evaluated after 13 days, 100=total damage, 0=no damage, read-out: Percentage damage caused to weed species, pre-emergence, ALOMY
Method in brief: as §1

[5] = tested on: Ipomea hederaceae (IPOHE); assay: as above; details: Ipomoea hederacea, 312 h, 1,000 g/ha, evaluated after 13 days, 100=total damage, 0=no damage, read-out: Percentage damage caused to weed species, pre-emergence, IPOHE
Method in brief: as §1

[6] = tested on: Echinochloa crus-galli (ECHCG); assay: as above; details: 312 h, 1,000 g/ha, evaluated after 13 days, 100=total damage, 0=no damage, read-out: Percentage damage caused to weed species, pre-emergence, ECHCG
Method in brief: as §1

[7] = tested on: Solanum nigrum (SOLNI); assay: Post-emergence biological efficacy, glasshouse pot test; details: 312 h, 1,000 g/ha, evaluated after 13 days, 100=total damage, 0=no damage, read-out: Percentage damage caused to weed species, post-emergence, SOLNI
Method in brief: (§2)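 Post-emergence spray, 1000 or 250 g/ha, acetone/water 50:50 + 0.5% Tween 20; plants 8 d old from sowing; glasshouse 24/16 °C, 14 h light, 65% RH, watered twice daily; visual damage 0–100 at 13 d.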

[8] = tested on: Amaranthus retroflexus (AMARE); assay: as above; details: 312 h, 1,000 g/ha, evaluated after 13 days, 100=total damage, 0=no damage, read-out: Percentage damage caused to weed species, post-emergence, AMARE
Method in brief: as §2

[9] = tested on: Setaria faberi (SETFA); assay: as above; details: 312 h, 1,000 g/ha, evaluated after 13 days, 100=total damage, 0=no damage, read-out: Percentage damage caused to weed species, post-emergence, SETFA
Method in brief: as §2

[10] = tested on: Alopecurus myosuroides (ALOMY); assay: as above; details: 312 h, 1,000 g/ha, evaluated after 13 days, 100=total damage, 0=no damage, read-out: Percentage damage caused to weed species, post-emergence, ALOMY
Method in brief: as §2

[11] = tested on: Ipomea hederaceae (IPOHE); assay: as above; details: Ipomoea hederacea, 312 h, 1,000 g/ha, evaluated after 13 days, 100=total damage, 0=no damage, read-out: Percentage damage caused to weed species, post-emergence, IPOHE
Method in brief: as §2

[12] = tested on: Echinochloa crus-galli (ECHCG); assay: as above; details: 312 h, 1,000 g/ha, evaluated after 13 days, 100=total damage, 0=no damage, read-out: Percentage damage caused to weed species, post-emergence, ECHCG
Method in brief: as §2

SMILES	pest or weed control at 1000 g/ha [1]	pest or weed control at 1000 g/ha [2]	pest or weed control at 1000 g/ha [3]	pest or weed control at 1000 g/ha [4]	pest or weed control at 1000 g/ha [5]	pest or weed control at 1000 g/ha [6]	pest or weed control at 1000 g/ha [7]	pest or weed control at 1000 g/ha [8]	pest or weed control at 1000 g/ha [9]	pest or weed control at 1000 g/ha [10]	pest or weed control at 1000 g/ha [11]	pest or weed control at 1000 g/ha [12]
COC(=O)c1nc(Cl)cc(NCc2cccs2)c1Cl [Compound 75-2, 3,6-Dichloro-4-(thiophen-2-ylmethylamino)-pyridine-2-carboxylic acid methyl ester]	100%	100%	80%	70%	90%	60%	100%	100%	80%	60%	70%	70%
C=Cc1c(NCc2cccs2)cc(Cl)nc1C(=O)OC [Compound 75-12, 6-Chloro-3-ethenyl-4-(thiophen-2-ylmethylamino)-pyridine-2-carboxylic acid methyl ester]	100%	100%	70%	80%	80%	60%	100%	100%	80%	50%	50%	70%
COC(=O)c1nc(Cl)cc(NCc2cc(C)nn2C)c1Cl [Compound 77-2, 3,6-Dichloro-4-[(1,3-dimethylpyrazol-5-ylmethyl)-amino]-pyridine-2-carboxylic acid methyl ester]	100%	100%	70%	60%	90%	20%	100%	100%	80%	50%	80%	30%
COC(=O)c1nc(Cl)cc(NCc2cccnc2)c1Cl [Compound 78-2, 3,6-Dichloro-4-(pyridin-3-ylmethylamino)-pyridine-2-carboxylic acid methyl ester]	100%	100%	50%	40%	90%	20%	100%	100%	50%	20%	70%	20%
COC(=O)c1nc(Cl)cc(NCc2ccncc2)c1Cl [Compound 80-2, 3,6-Dichloro-4-(pyridin-4-ylmethylamino)-pyridine-2-carboxylic acid methyl ester]	100%	100%	80%	70%	90%	20%	100%	90%	50%	40%	70%	60%
COC(=O)c1nc(Cl)cc(NCc2cnc(C)cn2)c1Cl [Compound 81-2, 3,6-Dichloro-4-[(5-methylpyrazin-2-ylmethyl)-amino]-pyridine-2-carboxylic acid methyl ester]	100%	100%	70%	70%	90%	70%	100%	100%	80%	40%	60%	40%
